Experimental data reported in patent US10202370B2, “Benzimidazole derivatives as selective proteine kinase inhibitors” (AB SCIENCE, priority 2013, dated 2019).

Target: c-kit WT (Homo sapiens (Human), UniProt P10721)
Test: Proliferation assay (CellTiter-Blue) on BaF3 Kit WT cell line
Assay type: cell-based
Details: BaF3 Kit WT cell line (murine Ba/F3 expressing Human Kit WT, with murine SCF), 48 hours
Procedure: Procedures of C-Kit WT Inhibition Assays:
Colorimetric cell proliferation and viability assay (reagent CellTiter-Blue purchased from Promega cat N°G8081) was performed on BaF3 Kit WT cell line.
A total of 2.10^4 cells/50 μl were seeded per well of a 96-wells plate. Treatment was initiated by addition of a 2× drug solution of ½ serial dilutions ranging from 0 to 10 μM. After incubating for 48 hours at 37° C., 10 μl of a ½ dilution of CellTiter-Blue reagent was added to each well and the plates were returned to the incubator for an additional 4 hours. The fluorescence intensity from the CellTiter-Blue reagent is proportional to the number of viable cells and data were recorded (544Ex/590Em) using a POLARstar OMEGA microplate reader (BMG LabteckSarl). A background control without cells was used as a blank. The positive control of the assay corresponds to the cell proliferation obtained in the absence of drug treatment (100% proliferation). Each sample was done in triplicate. The results were expressed as a percentage of the proliferation obtained in absence of treatment. All drugs were prepared as 20 mM stock solutions in DMSO and conserved at −80° C. Drug dilutions were made fresh in medium before each experiment. A DMSO control was included in each experiment.
The cell line expressing Human Kit WT was derived from the murine IL3-dependent Ba/F3 proB lymphoid cells. Ba/F3 Kit WT cells were maintained in RPMI medium containing 10% FCS and supplemented with 250 ng/ml of recombinant murine SCF.

Sequence of c-kit WT (P10721 26-976): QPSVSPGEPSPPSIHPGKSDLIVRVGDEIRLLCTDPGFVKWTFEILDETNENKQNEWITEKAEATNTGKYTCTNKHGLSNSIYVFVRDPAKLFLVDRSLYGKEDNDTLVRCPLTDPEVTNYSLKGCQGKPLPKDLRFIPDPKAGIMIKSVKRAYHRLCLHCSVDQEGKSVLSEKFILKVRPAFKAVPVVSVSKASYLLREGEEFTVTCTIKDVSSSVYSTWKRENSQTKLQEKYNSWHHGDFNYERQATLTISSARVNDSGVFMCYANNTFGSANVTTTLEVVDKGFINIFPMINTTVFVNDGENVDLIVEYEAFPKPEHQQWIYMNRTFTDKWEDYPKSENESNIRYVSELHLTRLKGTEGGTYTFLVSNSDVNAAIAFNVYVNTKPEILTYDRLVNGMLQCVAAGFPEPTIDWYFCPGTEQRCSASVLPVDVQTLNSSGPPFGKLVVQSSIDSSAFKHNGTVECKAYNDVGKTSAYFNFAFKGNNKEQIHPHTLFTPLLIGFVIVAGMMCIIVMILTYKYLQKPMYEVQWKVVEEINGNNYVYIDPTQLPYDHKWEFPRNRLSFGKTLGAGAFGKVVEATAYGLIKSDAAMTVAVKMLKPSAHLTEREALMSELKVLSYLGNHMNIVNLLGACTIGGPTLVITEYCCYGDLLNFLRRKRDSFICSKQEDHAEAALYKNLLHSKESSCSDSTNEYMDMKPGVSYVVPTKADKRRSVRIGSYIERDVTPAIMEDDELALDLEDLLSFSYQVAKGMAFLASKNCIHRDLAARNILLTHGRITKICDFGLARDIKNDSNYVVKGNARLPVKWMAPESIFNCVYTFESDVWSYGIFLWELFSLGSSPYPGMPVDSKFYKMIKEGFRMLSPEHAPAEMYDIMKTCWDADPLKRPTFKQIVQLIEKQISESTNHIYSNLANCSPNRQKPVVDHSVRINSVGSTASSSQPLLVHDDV

IC50 [µM] | Structure (SMILES)
1 to 10 | Cc1cc2nc(-c3cccc(C(F)(F)F)c3)n(C)c2cc1Nc1nc(-c2cccnc2)cs1 [Compound 116, [3,6-Dimethyl-2-(3-trifluoromethyl-phenyl)-3H-benzoimidazol-5-yl]-(4-pyridin-3-yl-thiazol-2-yl)-amine]
1 to 10 | Cc1cc2nc(-c3cccc(CN4CCN(C)CC4)c3)[nH]c2cc1Nc1nc(-c2ccncc2)cs1 [Compound 046, {6-Methyl-2-[3-(4-methyl-piperazin-1-ylmethyl)-phenyl]-1H-benzoimidazol-5-yl}-(4-pyridin-4-yl-thiazol-2-yl)-amine]
≤ 1 | Cc1cc2nc(-c3cccc(OC(F)(F)F)c3)[nH]c2cc1Nc1nc(-c2ccc(C#N)cc2)cs1 [Compound 075, 4-{2-[6-Methyl-2-(3-trifluoromethoxy-phenyl)-3H-benzoimidazol-5-ylamino]-thiazol-4-yl}-benzonitrile]
≤ 1 | Cc1cc2nc(-c3ccc(C)c(C(F)(F)F)c3)[nH]c2cc1Nc1nc(-c2cccnc2)cs1 [Compound 056, [6-Methyl-2-(4-methyl-3-trifluoromethyl-phenyl)-3H-benzoimidazol-5-yl]-(4-pyridin-3-yl-thiazol-2-yl)-amine]
1 to 10 | Cc1cc2nc(Cc3ccc(C(F)(F)F)cc3)[nH]c2cc1Nc1ncc(-c2ccncc2)o1 [Compound 054, [6-Methyl-2-(4-trifluoromethyl-benzyl)-3H-benzoimidazol-5-yl]-(5-pyridin-4-yl-oxazol-2-yl)-amine]
≤ 1 | C#Cc1cccc(-c2nc3cc(Nc4nc(-c5cccnc5)cs4)c(C)cc3[nH]2)c1 [Compound 139, [2-(3-Ethynyl-phenyl)-6-methyl-1H-benzoimidazol-5-yl]-(4-pyridin-3-yl-thiazol-2-yl)-amine]
1 to 10 | Cc1cc2nc(-c3cccc(OC(F)(F)F)c3)[nH]c2cc1Nc1nc(-c2cncnc2)cs1 [Compound 063, [6-Methyl-2-(3-trifluoromethoxy-phenyl)-3H-benzoimidazol-5-yl]-(4-pyrimidin-5-yl-thiazol-2-yl)-amine]
≤ 1 | Cc1cc2[nH]c(-c3cccc(S(C)(=O)=O)c3)nc2cc1Nc1nc(-c2cccnc2)cs1 [Compound 121, [2-(3-Methanesulfonyl-phenyl)-6-methyl-1H-benzoimidazol-5-yl]-(4-pyridin-3-yl-thiazol-2-yl)-amine]
≤ 1 | Cc1cc2nc(-c3cccc(C(F)(F)F)c3)[nH]c2cc1Nc1nc(-c2cncnc2)cs1 [Compound 062, [6-Methyl-2-(3-trifluoromethyl-phenyl)-3H-benzoimidazol-5-yl]-(4-pyrimidin-5-yl-thiazol-2-yl)-amine]
≤ 1 | Cc1cc2c(cc1Nc1nc(-c3ccncc3)cs1)nc(-c1cccc(F)c1)n2C [Compound 124, [2-(3-Fluoro-phenyl)-1,6-dimethyl-1H-benzoimidazol-5-yl]-(4-pyridin-4-yl-thiazol-2-yl)-amine]
1 to 10 | Cc1cc2[nH]c(-c3cccc(F)c3)nc2cc1Nc1nc(-c2cccnc2)cs1 [Compound 123, [2-(3-Fluoro-phenyl)-6-methyl-1H-benzoimidazol-5-yl] (4-pyridin-3-yl-thiazol-2-yl)-amine]
1 to 10 | Cc1cc2nc(-c3cc(CN4CCCC4)cc(C(F)(F)F)c3)[nH]c2cc1Nc1nc(-c2cccnc2)cs1 [Compound 023, [6-Methyl-2-(3-pyrrolidin-1-ylmethyl-5-trifluoromethyl-phenyl)-3H-benzoimidazol-5-yl]-(4-pyridin-3-yl-thiazol-2-yl)-amine]
≤ 1 | Cc1cc2[nH]c(-c3cccc(C(F)(F)F)c3)nc2cc1Nc1nc(-c2ccnc(Cl)c2)cs1 [Compound 106, [4-(2-Chloro-pyridin-4-yl)-thiazol-2-yl]-[6-methyl-2-(3-trifluoromethyl-phenyl)-1H-benzoimidazol-5-yl]-amine]
1 to 10 | FC(F)(F)c1cccc(-c2nc3cc(Nc4nc(-c5cccnc5)cs4)ccc3[nH]2)c1 [Compound 088, (4-Pyridin-3-yl-thiazol-2-yl)-[2-(3-trifluoromethyl-phenyl)-1H-benzoimidazol-5-yl]-amine]
≤ 1 | Cc1cc2nc(-c3cncc(C(F)(F)F)c3)[nH]c2cc1Nc1nc(-c2cccnc2)cs1 [Compound 049, [6-Methyl-2-(5-trifluoromethyl-pyridin-3-yl)-3H-benzoimidazol-5-yl]-(4-pyridin-3-yl-thiazol-2-yl)-amine]
≤ 1 | Cc1cc2c(cc1Nc1nc(-c3cccnc3)cs1)nc(-c1cccc(OC(F)(F)F)c1)n2C [Compound 086, [1,6-Dimethyl-2-(3-trifluoromethoxy-phenyl)-1H-benzoimidazol-5-yl]-(4-pyridin-3-yl-thiazol-2-yl)-amine]
≤ 1 | Cc1cc2[nH]c(-c3cccc(C(F)F)c3)nc2cc1Nc1nc(-c2ccnc(Cl)c2)cs1 [Compound 108, [4-(2-Chloro-pyridin-4-yl)-thiazol-2-yl]-[2-(3-difluoromethyl-phenyl)-6-methyl-1H-benzoimidazol-5-yl]-amine]
≤ 1 | Cc1cc2[nH]c(-c3cccc(C(C)C)c3)nc2cc1Nc1nc(-c2ccncc2)cs1 [Compound 150, [2-(3-Isopropyl-phenyl)-6-methyl-1H-benzoimidazol-5-yl]-(4-pyridin-4-yl-thiazol-2-yl)-amine]
≤ 1 | Cc1cc2c(cc1Nc1nc(-c3ccncc3)cs1)nc(-c1cccc(S(C)(=O)=O)c1)n2C [Compound 120, [2-(3-Methanesulfonyl-phenyl)-1,6-dimethyl-1H-benzoimidazol-5-yl]-(4-pyridin-4-yl-thiazol-2-yl)-amine]
1 to 10 | Cc1cc2nc(Cc3cccc(F)c3)[nH]c2cc1Nc1ncc(-c2ccncc2)o1 [Compound 052, [2-(3-Fluoro-benzyl)-6-methyl-3H-benzoimidazol-5-yl]-(5-pyridin-4-yl-oxazol-2-yl)-amine]
≤ 1 | Cc1cccc(-c2nc3cc(C)c(Nc4nc(-c5ccncc5)cs4)cc3[nH]2)c1 [Compound 034, (6-Methyl-2-m-tolyl-3H-benzoimidazol-5-yl)-(4-pyridin-4-yl-thiazol-2-yl)-amine]
1 to 10 | Cc1cc2c(cc1Nc1nc(-c3cccnc3)cs1)nc(-c1ccc(CN3CCN(C)CC3)cc1)n2C [Compound 098, {1,6-Dimethyl-2-[4-(4-methyl-piperazin-1-ylmethyl)-phenyl]-1H-benzoimidazol-5-yl}-(4-pyridin-3-yl-thiazol-2-yl)-amine]
≤ 1 | Cc1cc2nc(-c3ccc(-n4cccn4)cc3)[nH]c2cc1Nc1nc(-c2cccnc2)cs1 [Compound 057, [6-Methyl-2-(4-pyrazol-1-yl-phenyl)-3H-benzoimidazol-5-yl]-(4-pyridin-3-yl-thiazol-2-yl)-amine]
1 to 10 | Cc1cc2c(cc1Nc1nc(-c3ccncc3)cs1)nc(-c1cccc(N3CCN(C)CC3)c1)n2C [Compound 096, {1,6-Dimethyl-2-[3-(4-methyl-piperazin-1-yl)-phenyl]-1H-benzoimidazol-5-yl}-(4-pyridin-4-yl-thiazol-2-yl)-amine]
≤ 1 | Cc1cc2nc(-c3cccc(C(F)(F)F)c3)[nH]c2cc1Nc1nc(-c2cccnc2)cs1 [Compound 005, [6-Methyl-2-(3-trifluoromethyl-phenyl)-3H-benzoimidazol-5-yl]-(4-pyridin-3-yl-thiazol-2-yl)-amine]
≤ 1 | Cc1cc2nc(-c3ccc(C(F)(F)F)cc3)[nH]c2cc1Nc1nc(-c2ccc(C(N)=O)cc2)cs1 [Compound 072, 4-{2-[6-Methyl-2-(4-trifluoromethyl-phenyl)-3H-benzoimidazol-5-ylamino]-thiazol-4-yl}-benzamide]
